{"source": "ChEMBL document CHEMBL4130634", "about": "“Discovery of Reversible DNA Methyltransferase and Lysine Methyltransferase G9a Inhibitors with Antitumoral in Vivo Efficacy” (J Med Chem, 2018)", "key": {"[1]": {"target": "DNA (cytosine-5)-methyltransferase 1 (Homo sapiens, UniProt P26358)", "sequence (P26358 whole entry)": "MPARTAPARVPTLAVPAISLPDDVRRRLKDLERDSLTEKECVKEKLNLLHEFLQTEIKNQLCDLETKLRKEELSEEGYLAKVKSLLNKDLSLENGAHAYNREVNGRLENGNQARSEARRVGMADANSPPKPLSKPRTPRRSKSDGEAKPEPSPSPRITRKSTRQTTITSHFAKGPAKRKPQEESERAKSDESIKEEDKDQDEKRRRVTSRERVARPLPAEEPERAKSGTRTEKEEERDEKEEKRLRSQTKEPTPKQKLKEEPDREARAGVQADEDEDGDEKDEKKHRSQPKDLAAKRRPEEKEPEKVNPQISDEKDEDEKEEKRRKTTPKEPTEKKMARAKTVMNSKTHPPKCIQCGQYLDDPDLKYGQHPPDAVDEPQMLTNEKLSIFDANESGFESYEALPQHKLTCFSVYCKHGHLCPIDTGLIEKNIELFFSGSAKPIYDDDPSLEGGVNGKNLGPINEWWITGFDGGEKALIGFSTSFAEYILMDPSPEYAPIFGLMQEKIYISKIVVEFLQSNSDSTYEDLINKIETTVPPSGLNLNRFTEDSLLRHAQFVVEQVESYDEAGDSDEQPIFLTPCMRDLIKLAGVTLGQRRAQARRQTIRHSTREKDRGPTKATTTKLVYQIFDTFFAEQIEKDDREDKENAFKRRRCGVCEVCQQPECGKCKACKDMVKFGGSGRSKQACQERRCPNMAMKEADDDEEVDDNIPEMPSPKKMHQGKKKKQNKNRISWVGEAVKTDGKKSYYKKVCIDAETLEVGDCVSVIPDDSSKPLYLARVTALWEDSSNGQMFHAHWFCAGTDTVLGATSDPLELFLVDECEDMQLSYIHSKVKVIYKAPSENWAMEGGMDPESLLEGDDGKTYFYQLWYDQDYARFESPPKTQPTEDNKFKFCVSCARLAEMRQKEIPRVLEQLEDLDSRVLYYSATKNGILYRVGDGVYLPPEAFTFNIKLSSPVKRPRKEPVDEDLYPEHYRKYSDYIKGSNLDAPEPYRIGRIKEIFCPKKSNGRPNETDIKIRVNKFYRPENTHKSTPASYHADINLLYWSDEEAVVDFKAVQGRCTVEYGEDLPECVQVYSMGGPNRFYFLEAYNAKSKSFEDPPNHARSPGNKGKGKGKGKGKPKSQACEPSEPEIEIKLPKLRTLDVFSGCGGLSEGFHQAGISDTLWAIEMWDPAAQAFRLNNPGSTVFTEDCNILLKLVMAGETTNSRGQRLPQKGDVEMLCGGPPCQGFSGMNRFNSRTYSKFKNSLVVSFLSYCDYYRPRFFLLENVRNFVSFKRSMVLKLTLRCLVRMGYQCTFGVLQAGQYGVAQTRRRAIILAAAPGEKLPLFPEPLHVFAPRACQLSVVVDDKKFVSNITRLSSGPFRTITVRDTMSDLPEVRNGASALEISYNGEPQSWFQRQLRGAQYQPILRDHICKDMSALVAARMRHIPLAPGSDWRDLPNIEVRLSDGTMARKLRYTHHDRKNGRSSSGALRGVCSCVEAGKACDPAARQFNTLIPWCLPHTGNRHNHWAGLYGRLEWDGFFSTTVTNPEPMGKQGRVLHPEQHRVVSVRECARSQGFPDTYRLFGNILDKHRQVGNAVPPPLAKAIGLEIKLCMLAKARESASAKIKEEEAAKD", "assay": "Inhibition of human DNMT1 using polydeoxyinosine polydeoxycytosine DNA as substrate after 15 mins in presence of SAM by TR-FRET assay"}, "CYP2D6": {"target": "CYP2D6 (Homo sapiens, UniProt P10635)", "sequence (P10635 whole entry)": "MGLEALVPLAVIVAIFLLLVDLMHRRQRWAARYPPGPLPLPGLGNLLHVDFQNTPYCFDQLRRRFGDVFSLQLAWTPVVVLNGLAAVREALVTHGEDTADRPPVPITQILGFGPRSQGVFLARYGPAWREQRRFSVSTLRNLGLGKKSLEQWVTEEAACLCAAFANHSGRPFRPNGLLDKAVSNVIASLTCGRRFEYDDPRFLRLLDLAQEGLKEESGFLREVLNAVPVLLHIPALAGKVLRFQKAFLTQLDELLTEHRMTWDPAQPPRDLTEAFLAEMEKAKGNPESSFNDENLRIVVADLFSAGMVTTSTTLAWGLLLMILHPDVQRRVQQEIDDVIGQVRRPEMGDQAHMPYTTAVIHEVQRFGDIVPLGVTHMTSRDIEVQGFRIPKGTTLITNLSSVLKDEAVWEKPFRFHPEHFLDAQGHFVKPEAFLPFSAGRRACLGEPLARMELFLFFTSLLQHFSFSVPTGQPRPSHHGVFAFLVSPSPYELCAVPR", "assay": "Inhibition of CYP2D6 in human liver microsomes at 10 uM after 10 mins in presence of NADPH by LC-MS/MS analysis relative to control", "format": "ADME"}, "[2]": {"target": "T1, Histone-lysine N-methyltransferase EHMT1 (Homo sapiens, UniProt Q9H9B1)", "T1 sequence (Q9H9B1 whole entry)": "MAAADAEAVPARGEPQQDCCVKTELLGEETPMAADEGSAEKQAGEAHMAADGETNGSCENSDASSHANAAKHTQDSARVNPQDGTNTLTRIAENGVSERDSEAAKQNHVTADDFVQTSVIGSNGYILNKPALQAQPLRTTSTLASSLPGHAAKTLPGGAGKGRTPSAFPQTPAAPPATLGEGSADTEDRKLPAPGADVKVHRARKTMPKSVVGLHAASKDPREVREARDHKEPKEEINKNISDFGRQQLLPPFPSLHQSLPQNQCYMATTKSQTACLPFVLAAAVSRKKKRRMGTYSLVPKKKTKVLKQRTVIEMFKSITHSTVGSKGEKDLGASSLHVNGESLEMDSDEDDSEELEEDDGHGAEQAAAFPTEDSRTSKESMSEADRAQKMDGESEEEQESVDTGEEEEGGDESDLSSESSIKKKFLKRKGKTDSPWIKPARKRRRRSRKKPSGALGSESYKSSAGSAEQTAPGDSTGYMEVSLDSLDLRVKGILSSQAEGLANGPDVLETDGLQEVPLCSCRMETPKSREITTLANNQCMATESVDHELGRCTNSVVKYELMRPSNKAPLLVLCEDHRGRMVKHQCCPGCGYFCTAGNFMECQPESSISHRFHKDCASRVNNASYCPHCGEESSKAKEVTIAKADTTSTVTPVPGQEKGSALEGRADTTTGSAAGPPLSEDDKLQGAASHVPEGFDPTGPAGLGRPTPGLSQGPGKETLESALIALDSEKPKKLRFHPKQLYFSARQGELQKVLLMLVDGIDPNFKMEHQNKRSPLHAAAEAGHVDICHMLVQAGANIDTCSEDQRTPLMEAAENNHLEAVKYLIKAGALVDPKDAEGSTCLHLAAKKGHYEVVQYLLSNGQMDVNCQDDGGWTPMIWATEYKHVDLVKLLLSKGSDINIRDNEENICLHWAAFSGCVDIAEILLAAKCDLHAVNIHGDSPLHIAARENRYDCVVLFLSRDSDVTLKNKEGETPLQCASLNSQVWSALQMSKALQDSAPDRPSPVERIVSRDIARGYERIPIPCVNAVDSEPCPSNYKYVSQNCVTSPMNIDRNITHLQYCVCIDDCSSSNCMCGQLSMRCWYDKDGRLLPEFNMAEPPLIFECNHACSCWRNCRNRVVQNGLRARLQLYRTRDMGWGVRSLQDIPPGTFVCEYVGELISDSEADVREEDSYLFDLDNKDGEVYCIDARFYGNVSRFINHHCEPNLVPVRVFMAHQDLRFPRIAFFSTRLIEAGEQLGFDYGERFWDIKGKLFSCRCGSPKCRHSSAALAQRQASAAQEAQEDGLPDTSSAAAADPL", "assay": "Inhibition of recombinant human GLP using histone H3 peptide as substrate after 120 mins in presence of [3H]SAM by radiometric assay"}, "[3]": {"assay": "AUC (0 to 24 hrs) in RARG2-/-gammac-/- Balb/c mouse at 5 mg/kg, iv administered as single dose by LC-MS/MS analysis", "format": "ADME, organism-based", "set-up": "dose 5 mg/kg, time < 24 hr, route intravenous", "details": "in vivo"}, "MV4-11": {"tested_on": "MV4-11", "assay": "Growth inhibition of human MV4-11 cells after 48 hrs by MTS assay", "format": "functional", "details": "MV4-11, 48 h"}, "OCI-Ly10": {"tested_on": "OCI-Ly10", "assay": "Growth inhibition of human OCI-LY10 cells after 48 hrs by MTS assay", "format": "functional", "details": "OCI-Ly10, 48 h"}, "CYP2C9": {"target": "CYP2C9 (Homo sapiens, UniProt P11712)", "sequence (P11712 whole entry)": "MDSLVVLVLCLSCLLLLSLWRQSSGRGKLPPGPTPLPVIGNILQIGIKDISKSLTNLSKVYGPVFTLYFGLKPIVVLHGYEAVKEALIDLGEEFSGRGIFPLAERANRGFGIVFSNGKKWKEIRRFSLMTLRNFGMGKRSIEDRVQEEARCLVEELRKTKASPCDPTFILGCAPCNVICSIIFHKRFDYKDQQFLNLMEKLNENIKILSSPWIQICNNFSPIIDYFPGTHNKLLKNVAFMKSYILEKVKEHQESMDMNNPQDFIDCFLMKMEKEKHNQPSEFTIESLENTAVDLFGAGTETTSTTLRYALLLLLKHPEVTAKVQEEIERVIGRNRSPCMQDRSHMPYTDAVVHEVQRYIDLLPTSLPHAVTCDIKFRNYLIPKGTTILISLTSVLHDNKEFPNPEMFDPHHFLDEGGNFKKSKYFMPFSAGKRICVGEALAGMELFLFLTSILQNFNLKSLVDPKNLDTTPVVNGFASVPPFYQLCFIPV", "assay": "Inhibition of CYP2C9 in human liver microsomes at 10 uM after 10 mins in presence of NADPH by LC-MS/MS analysis relative to control", "format": "ADME"}, "[4]": {"assay": "Growth inhibition of human CEMO1 cells after 48 hrs by MTS assay", "format": "functional"}, "[5]": {"target": "T2, Histone-lysine N-methyltransferase EHMT2 (Homo sapiens, UniProt Q96KQ7)", "T2 sequence (Q96KQ7 whole entry)": "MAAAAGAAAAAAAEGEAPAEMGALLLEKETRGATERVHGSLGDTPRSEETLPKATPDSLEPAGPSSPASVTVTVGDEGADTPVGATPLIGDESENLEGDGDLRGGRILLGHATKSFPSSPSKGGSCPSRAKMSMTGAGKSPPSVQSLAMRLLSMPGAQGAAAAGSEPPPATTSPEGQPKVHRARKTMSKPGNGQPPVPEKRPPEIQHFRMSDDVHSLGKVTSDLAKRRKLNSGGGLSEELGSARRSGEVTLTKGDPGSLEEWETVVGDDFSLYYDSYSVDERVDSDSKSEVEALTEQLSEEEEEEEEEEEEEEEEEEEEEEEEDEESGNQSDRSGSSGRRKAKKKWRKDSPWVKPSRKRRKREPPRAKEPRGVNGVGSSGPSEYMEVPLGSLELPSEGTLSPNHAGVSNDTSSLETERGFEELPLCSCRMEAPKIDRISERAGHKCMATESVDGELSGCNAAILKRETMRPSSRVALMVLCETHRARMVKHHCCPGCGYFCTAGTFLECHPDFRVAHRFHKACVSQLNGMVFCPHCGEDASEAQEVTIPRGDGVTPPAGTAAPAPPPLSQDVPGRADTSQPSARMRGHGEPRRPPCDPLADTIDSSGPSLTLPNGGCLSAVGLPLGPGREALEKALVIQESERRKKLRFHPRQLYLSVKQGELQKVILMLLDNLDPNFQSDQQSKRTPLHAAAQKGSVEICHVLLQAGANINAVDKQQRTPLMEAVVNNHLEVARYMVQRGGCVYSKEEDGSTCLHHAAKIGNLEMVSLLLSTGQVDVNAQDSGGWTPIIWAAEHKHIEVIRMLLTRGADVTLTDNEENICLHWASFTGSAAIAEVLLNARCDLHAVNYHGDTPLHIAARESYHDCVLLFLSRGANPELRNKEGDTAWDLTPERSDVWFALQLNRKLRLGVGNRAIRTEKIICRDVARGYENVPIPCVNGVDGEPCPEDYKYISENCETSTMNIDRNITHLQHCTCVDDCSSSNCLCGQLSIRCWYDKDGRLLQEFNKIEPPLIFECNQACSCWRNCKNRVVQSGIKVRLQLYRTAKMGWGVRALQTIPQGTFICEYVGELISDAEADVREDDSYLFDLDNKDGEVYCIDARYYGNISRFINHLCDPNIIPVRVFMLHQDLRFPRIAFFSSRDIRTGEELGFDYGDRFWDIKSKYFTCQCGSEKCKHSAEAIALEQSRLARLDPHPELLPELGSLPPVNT", "assay": "Inhibition of human G9a using biotinylated-H3K9 peptide as substrate after 1 hr in presence of SAM by TR-FRET assay"}}}
{"smiles": "COc1cc2c(NC3CCN(C4CC4)CC3)cc(-c3ccc(C)o3)nc2cc1OCCCN1CCCC1", "values": [{"measurement": "IC50", "setting": "[1]", "value": 413, "unit": "nM"}, {"measurement": "inhibition at 10 min, 10 µM", "setting": "CYP2D6", "value": 27.6, "unit": "%"}, {"measurement": "IC50", "setting": "[2]", "value": "> 20000", "unit": "nM"}, {"measurement": "AUC(0-t) at 24 h", "setting": "[3]", "value": 8.79, "unit": "µM·h"}, {"measurement": "GI50", "setting": "MV4-11", "value": 1590, "unit": "nM"}, {"measurement": "GI50", "setting": "OCI-Ly10", "value": 94, "unit": "nM"}, {"measurement": "inhibition at 10 min, 10 µM", "setting": "CYP2C9", "value": 8, "unit": "%"}, {"measurement": "GI50", "setting": "[4]", "value": 453, "unit": "nM"}, {"measurement": "IC50", "setting": "[5]", "value": 22, "unit": "nM"}]}
